Laboratory results reported in publication PMC10134960, “Discovery of sulfonamide-tethered isatin derivatives as novel anticancer agents and VEGFR-2 inhibitors” (Journal of Enzyme Inhibition and Medicinal Chemistry, 2023).

Key:
[1] = tested on: NCI panel of 58 human tumour cell lines; assay: NCI in vitro single-dose antiproliferative assay, panel of 58 tumour cell lines; assay type: cell-based; settings: single concentration of 10 μM, read-out: cell inhibition (mean % growth inhibition, GI)
Description: (§1) The designed isatin derivatives 6a-i, 11a-c and 12a-c were examined for in vitro antitumor activity on NCI panel involving 58 distinct human tumour cell lines covering nine distinct types of cancer, at single concentration of 10 μM (supplementary file). […] Based on the findings, we concluded that none of compounds 6a, 6c, or 11a were able to increase cell inhibition by more than 20%. And by looking at the mean growth inhibition of the other compounds on each cancer, we discovered that, in addition to CNS cancer in compound 11c and leukaemia in compounds 12b and 12c, all the compounds had the strongest mean growth inhibition on breast cancer cell lines.
(§2) The supplementary data included descriptions of every experimental technique.
(§3) NCI-60 cancer cell lines screening
(§4) Primary anticancer assay was performed on a panel of sixty human tumour cell lines derived from nine neoplastic diseases, in accordance with the protocol of the Drug Evaluation Branch, National Cancer Institute, Bethesda, Maryland, USA. Tested compounds were added to the cell culture at a single concentration ([…]) and the cultures were incubated for 48 h. End point determinations were made with a protein binding dye, sulforhodamine B (SRB). Results for each tested compound were reported as the percent of growth of treated cells when compared to untreated control cells. The percentage growth was evaluated spectrophotometrically versus controls not treated with test agents 1. […]

T47D cells [2] = assay: NCI in vitro single-dose cellular antiproliferative assay, T47D cells; assay type: cell-based; settings: Homo sapiens; T47D breast cancer cells, single concentration of 10 μM; read-out: GI% (growth inhibition)
Description: as §1, §2, §3, §4

CA I = target: T1, CA I (Homo sapiens, UniProt P00915); assay: Carbonic anhydrase inhibition, stopped-flow CO2 hydration, CA I; assay type: biochemical; settings: stopped flow assay, mean of triplicate assays
T1 construct: made in house
T1 sequence (P00915 whole entry): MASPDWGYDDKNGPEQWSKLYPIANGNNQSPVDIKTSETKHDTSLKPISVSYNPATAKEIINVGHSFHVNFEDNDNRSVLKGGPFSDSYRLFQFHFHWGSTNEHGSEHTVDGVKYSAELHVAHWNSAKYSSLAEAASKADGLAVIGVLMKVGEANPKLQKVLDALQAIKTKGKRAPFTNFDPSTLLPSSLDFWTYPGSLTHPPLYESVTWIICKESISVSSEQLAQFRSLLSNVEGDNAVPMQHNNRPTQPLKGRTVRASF

CA IX [3] = target: T2, CA IX (Homo sapiens, UniProt Q16790); assay: Carbonic anhydrase inhibition, stopped-flow CO2 hydration, CA IX; assay type: biochemical; settings: stopped flow assay, mean of triplicate assays
T2 construct: made in house

CA II = CA II (Homo sapiens, UniProt P00918); assay: biochemical
Description: Carbonic anhydrase I, II, and IX inhibition studies
The CO2 hydration actions catalyzed by carbonic anhydrase for targeted compounds herein
presented were measured using an Applied Photophysics stopped-flow instrument. The enzymes
are recombinant proteins that have been created in a lab. Following the initial rates of the CA-
catalyzed CO2 hydration reaction for a period of 10-100 s, phenol red (at a concentration of 0.2
mM) was used as an indicator, working at an absorbance maximum of 557 nm, with 20 mM
Hepes (pH 7.5) as a buffer, and 20 mM Na2SO4 (to maintain constant the ionic strength). The
CO2 concentrations used to determine the kinetic parameters and inhibition constants ranged
from 1.7 to 17 mM. At least six traces of the first 5-10% of the reaction were utilized to
determine the beginning velocity for each inhibitor. In the same way, the uncatalyzed rates were calculated and deducted from the total measured rates. Stock inhibitor solutions (0.1 mM) were
produced in distilled-deionized water, followed by dilutions with the assay buffer up to 0.01 nM.
Prior to the experiment, the inhibitor and enzyme solutions were preincubated together for 15
minutes at room temperature to allow for the development of the E-I complex. The inhibition
constants were calculated using non-linear least-squares methods using the ChengPrusoff
equation in PRISM 3. They reflect the average of at least three individual measurements 6, 7.

T47D cells [4] = assay: In vitro cytotoxicity against T47D (sulforhodamine B colorimetric test); settings: Homo sapiens, 72 h, read-out: IC50 ± S.D. T47D
Description: Doxorubicin was set as reference in this assay.
The cytotoxic efficacy of the target compounds against T47D cells was determined, using the SRB colorimetric technique, as previously reported. Briefly, exponentially growing cells were trypsinized, counted and seeded at the appropriate densities (5000 cells/100 μL/ well) into 96-well microtiter plates.
Then, the cells were exposed to the tested compounds at the desired concentrations (0.01, 0.1, 1, 10, and 100 μM) or to 1% dimethyl sulfoxide (DMSO) for 72 h. At the end of the treatment period, the media were removed, and the cells were fixed with 10% trichloroacetic acid at 4 °C for 1 h. Following, the cells were washed with tap water four times and incubated with SRB 0.4% for 30 min. Excess dye was removed by washing repeatedly with 1% (vol/vol) acetic acid.
The protein-bound dye was dissolved in 10 mM Tris base solution for (optical density) OD determination at 510 nm using a Spectra Max plus Microplate Reader (Molecular Devices, CA).
Cell viability was expressed relative to the untreated control cells 2, 3.

VEGFR-2 = target: T3, VEGFR-2 (Homo sapiens, UniProt P35968); assay: VEGFR-2 inhibition assay (HTRF); assay type: biochemical; settings: for IC50: mean ± SD of triplicate, read-out: VEGFR-2 IC50 ± S.D.
T3 construct: purchased BioAssay Systems EKIN-400
T3 sequence (P35968 20-1356): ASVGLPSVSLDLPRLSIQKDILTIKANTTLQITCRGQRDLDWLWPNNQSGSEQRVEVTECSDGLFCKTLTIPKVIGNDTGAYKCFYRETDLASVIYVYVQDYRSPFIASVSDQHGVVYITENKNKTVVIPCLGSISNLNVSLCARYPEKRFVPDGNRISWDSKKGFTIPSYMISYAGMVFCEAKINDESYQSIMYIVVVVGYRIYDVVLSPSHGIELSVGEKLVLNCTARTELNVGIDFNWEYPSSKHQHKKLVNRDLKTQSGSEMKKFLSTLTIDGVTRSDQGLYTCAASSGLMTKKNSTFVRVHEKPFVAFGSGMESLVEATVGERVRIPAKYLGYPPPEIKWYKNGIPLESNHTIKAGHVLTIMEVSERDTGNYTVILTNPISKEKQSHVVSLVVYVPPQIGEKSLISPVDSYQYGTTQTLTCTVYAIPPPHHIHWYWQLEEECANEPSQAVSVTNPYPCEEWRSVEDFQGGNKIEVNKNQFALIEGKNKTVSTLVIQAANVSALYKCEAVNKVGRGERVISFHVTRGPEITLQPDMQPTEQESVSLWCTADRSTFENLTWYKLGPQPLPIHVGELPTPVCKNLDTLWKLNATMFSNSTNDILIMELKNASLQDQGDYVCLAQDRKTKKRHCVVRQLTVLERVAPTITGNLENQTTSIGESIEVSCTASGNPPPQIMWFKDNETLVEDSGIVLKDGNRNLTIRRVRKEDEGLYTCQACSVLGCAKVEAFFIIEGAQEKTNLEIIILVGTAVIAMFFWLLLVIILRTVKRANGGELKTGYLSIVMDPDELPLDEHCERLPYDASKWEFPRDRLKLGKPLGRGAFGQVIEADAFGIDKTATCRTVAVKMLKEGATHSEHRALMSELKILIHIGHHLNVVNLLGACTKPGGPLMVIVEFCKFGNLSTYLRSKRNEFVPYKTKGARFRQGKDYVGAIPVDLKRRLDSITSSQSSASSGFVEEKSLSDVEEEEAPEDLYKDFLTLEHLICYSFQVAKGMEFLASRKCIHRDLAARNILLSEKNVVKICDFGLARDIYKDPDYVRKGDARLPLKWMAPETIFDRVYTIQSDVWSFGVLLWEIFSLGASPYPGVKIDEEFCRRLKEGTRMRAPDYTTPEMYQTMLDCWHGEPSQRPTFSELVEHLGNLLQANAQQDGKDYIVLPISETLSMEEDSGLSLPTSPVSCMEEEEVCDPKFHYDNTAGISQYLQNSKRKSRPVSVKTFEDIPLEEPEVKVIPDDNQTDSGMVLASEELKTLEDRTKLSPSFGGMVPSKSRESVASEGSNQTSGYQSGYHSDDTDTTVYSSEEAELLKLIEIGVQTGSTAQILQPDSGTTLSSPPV
Description: HTRF (homogeneous time-resolved fluorescence) assay method was used to conduct inhibitory action of all newly synthesized compounds against VEGFR-2. VEGFR-2 kinase (BioAssay Systems - Kinase Assay Kit, EKIN-400) and its substrate were incubated for 5 min in a buffer solution with newly synthesized compounds/Sorafnib to initiate the enzymatic reaction, then ATP was added to the reaction mixture. Hold under 30 min at room temperature. The reaction was stopped by adding

T47D cells [5] = assay: Annexin V-FITC/PI apoptosis assay; assay type: cell-based, human; settings: for Early apoptosis / Late apoptosis: 24 h, annexin V-FITC/PI; for increase of overall apoptosis in comparison to the control: versus untreated control
Source text: To explore link between growth suppression activity of compounds 11b and 12b with initiation of apoptosis indicated by rising population of sub-G1 in treated T47D cell lines, the Annexin V-FITC/PI double labelling (AV/PI) apoptosis assay was done. The outcomes of the experiment are shown in Figure 4, showing that compounds 11b and 12b caused T47D cell lines to undergo early and late apoptosis. In fact, % of apoptotic cells amplified from 0.41% at early and 0.22% at late apoptosis in T47D cells that had not been treated to 31.0% of early and 12.07% of late apoptosis in T47D cell that had been treated with compound 11b and to 23.5% at early and 9.4% at late apoptosis of T47D cells that had been treated with compound 12b. According to these findings, compounds 11b and 12b increased the overall apoptosis of T47D cells by roughly 19 and 16.2 times, respectively, in comparison to the control.
The supplementary data included descriptions of every experimental technique. […]
μM of compounds 11b and 12b. […]
(§5) and fixed for 12 h. […] Then, the cells
Cell cycle analysis and apoptosis were […]
experiment has been carried out three times.
Annexin V-FITC apoptosis assay […]
washed with cold phosphate-buffer saline (PBS). Cells were then stained with Annexin V-FITC […]
The samples were analyzed using the flow cytometer 8, 9.

T47D cells [6] = assay: Cell cycle distribution analysis by flow cytometry; assay type: cell-based, human; settings: 10 μM, 24 h
Description: DMSO (control) or compounds 11b and 12b were applied to T47D cells, and flow cytometry was used to determine the DNA concentration. Figure 3 presents the findings. […]
μM of compounds 11b and 12b.
as §5
Cell cycle analysis and apoptosis were
experiment has been carried out three times. […]

CA IX [7] = target: CA IX; set-up: method as in PMID 30445264; settings: cancer-related CA IX isoform; cited from earlier work

## COc1ccc(/C(C)=N/N=C2/C(=O)Nc3ccccc32)cc1S(N)(=O)=O [Compound 6a]
other
  melting point: 250 to 252 °C
[1]
  inhibition at 10 µM: ≤ 20%

## COc1ccc(/C(C)=N/N=C2/C(=O)Nc3ccc(F)cc32)cc1S(N)(=O)=O [Compound 6b]
other
  melting point: 262 to 264 °C

## COc1ccc(/C(C)=N/N=C2/C(=O)Nc3c(F)cccc32)cc1S(N)(=O)=O [Compound 6c]
other
  melting point: 266 to 268 °C
[1]
  inhibition at 10 µM: ≤ 20%

## COc1ccc(/C(C)=N/N=C2/C(=O)Nc3ccc(Cl)cc32)cc1S(N)(=O)=O [Compound 6d]
other
  melting point: 268 to 270 °C

## COc1ccc(/C(C)=N/N=C2/C(=O)Nc3c(Cl)cccc32)cc1S(N)(=O)=O [Compound 6e]
other
  melting point: 278 to 280 °C

## COc1ccc(/C(C)=N/N=C2/C(=O)Nc3ccc(Br)cc32)cc1S(N)(=O)=O [Compound 6f]
other
  melting point: 274 to 276 °C
T47D cells [2]
  inhibition at 10 µM: 54%
CA I
  Ki: > 100 µM
CA IX [3]
  Ki: > 100 µM
CA II
  Ki: > 100 µM
T47D cells [4]
  IC50: 5.45 ± 0.24 µM
VEGFR-2
  inhibition at 10 µM: 86.8%
  IC50: 0.0567 ± 0.00072 µM

## COc1ccc(/C(C)=N/N=C2/C(=O)Nc3cc(Br)ccc32)cc1S(N)(=O)=O [Compound 6g]
other
  melting point: 276 to 278 °C

## COc1ccc2c(c1)/C(=N\N=C(/C)c1ccc(OC)c(S(N)(=O)=O)c1)C(=O)N2 [Compound 6h]
other
  melting point: 264 to 266 °C

## COc1ccc(/C(C)=N/N=C2/C(=O)Nc3ccc(OC(F)(F)F)cc32)cc1S(N)(=O)=O [Compound 6i]
other
  melting point: 270 to 272 °C
T47D cells [2]
  inhibition at 10 µM: 32%
T47D cells [4]
  IC50: 24.1 ± 1.08 µM

## COc1ccc(/C(C)=N/N=C2/C(=O)N(C)c3ccccc32)cc1S(N)(=O)=O [Compound 11a]
[1]
  inhibition at 10 µM: ≤ 20%

## COc1ccc(/C(C)=N/N=C2/C(=O)N(C)c3ccc(Cl)cc32)cc1S(N)(=O)=O [Compound 11b]
T47D cells [5]
  Early apoptosis: 31.0%
  Late apoptosis: 12.07%
  increase of overall apoptosis in comparison to the control: roughly 19 times
other
  melting point: 248 to 250 °C
T47D cells [2]
  inhibition at 10 µM: 55%
T47D cells [6]
  %G0/G1: 68.42%
  %Sub-G1: 45.88%
CA I
  Ki: > 100 µM
CA IX [3]
  Ki: > 100 µM
CA II
  Ki: > 100 µM
T47D cells [4]
  IC50: 1.83 ± 0.08 µM
VEGFR-2
  inhibition at 10 µM: 72.7%
  IC50: 0.0634 ± 0.00072 µM

## COc1ccc(/C(C)=N/N=C2/C(=O)N(C)c3ccc(Br)cc32)cc1S(N)(=O)=O [Compound 11c]
other
  melting point: 263 to 265 °C
T47D cells [2]
  inhibition at 10 µM: 52%
CA I
  Ki: > 100 µM
CA IX [3]
  Ki: > 100 µM
CA II
  Ki: > 100 µM
T47D cells [4]
  IC50: 10.4 ± 0.47 µM
VEGFR-2
  inhibition at 10 µM: 92%
  IC50: 0.0301 ± 0.00031 µM

## COc1ccc(/C(C)=N/N=C2/C(=O)N(Cc3ccccc3)c3ccccc32)cc1S(N)(=O)=O [Compound 12a]
other
  melting point: 235 to 237 °C
T47D cells [2]
  inhibition at 10 µM: 57%
T47D cells [4]
  IC50: 11.6 ± 0.52 µM

## COc1ccc(/C(C)=N/N=C2/C(=O)N(Cc3ccccc3)c3ccc(Cl)cc32)cc1S(N)(=O)=O [Compound 12b]
T47D cells [5]
  Early apoptosis: 23.5%
  Late apoptosis: 9.4%
  increase of overall apoptosis in comparison to the control: ~16.2 times
other
  melting point: 245 to 247 °C
T47D cells [2]
  inhibition at 10 µM: 28%
T47D cells [6]
  %S: 41.05%
  %Sub-G1: 39.15%
CA I
  Ki: > 100 µM
CA IX [3]
  Ki: > 100 µM
CA II
  Ki: > 100 µM
T47D cells [4]
  IC50: 3.59 ± 0.16 µM
VEGFR-2
  inhibition at 10 µM: 97.2%
  IC50: 0.0231 ± 0.00041 µM

## COc1ccc(/C(C)=N/N=C2/C(=O)N(Cc3ccccc3)c3ccc(Br)cc32)cc1S(N)(=O)=O [Compound 12c]
other
  melting point: 260 to 262 °C
T47D cells [2]
  inhibition at 10 µM: 39%
T47D cells [4]
  IC50: 16.5 ± 0.74 µM

## COc1cccc2c1C(=O)c1c(O)c3c(c(O)c1C2=O)C[C@@](O)(C(=O)CO)C[C@@H]3O[C@H]1C[C@H](N)[C@H](O)[C@H](C)O1 [Doxorubicin, reference compound]
T47D cells [4]
  IC50: 2.26 ± 0.1 µM

## CN1C(=O)/C(=N\c2ccc(NC(=O)Nc3ccc(S(N)(=O)=O)cc3)cc2)c2cc(Cl)ccc21 [compound II]
CA IX [7]
  Ki: 0.0052 µM
